Results published in patent publication US5214034A, “Catechol derivatives, and preventive and remedial preparations for regressive disorders in the central nervous system containing the same” (priority 1986, dated 1993).
Entries after “also recorded” stand apart in the source; their conditions may differ. Like-named read-outs stand apart in the source and are kept apart here.

Key:
Acute toxicity (LD50) = conditions: mouse, in vivo
Method: The catechol derivative having normal type saturated lower alkyl groups on the ring was administered by intravenous injection (i.v.), intraperitoneal injection (i.p.) or oral route (p.o.) to male ddy mice of 4-week old. The LD50 values (mg/kg) were measured by an ordinary method.

NGF = NGF production in the central nervous system of normal rats by intraperitoneal injection (NGF content of brain tissue, ELISA); assay type: in vivo, rat (Wistar male)
Method: The derivative (A), e.g. R=Two H, R1 =H and R2 =n-propyl (hereinafter referred to as 4-n-propylcatechol), was administered to normal rats by intraperitoneal injection, and the effect was examined.
4-n-Propylcatechol was administered by intraperitoneal injection 4 times every other day in a dosage of 5 mg/kg. The rats were killed two days after the final administration. The NGF content of each parts in brain was measured. The content was compared with those of control group which was administered saline alone.
A variety of the derivative was administered three times every other day. The content of NGF in the forebrain after 48 hours and 7 days from the final administration was measured and illustrated in Table 7.
Wistar male rats (9-10-week old, 200-250 g of weight) were intraperitoneally injected with the test derivative in a volume of 0.5 ml as a saline solution, emulsion or suspension. Dose and administration times were the same as above. The rats were killed by a hard spinal blow two days after the final administration. Each parts of brain were dissected and subjected to the following treatment under ice cooling.
Each parts of brain were weighed and homogenized for 30 strokes by a Dounce type homogenizer in a homogenization buffer (0.1 M Tris-HCl, containing 2% bovine serum albumin fraction V, 2% gelatin, 1.0 M NaCl, 0.02% NaN3, 2 mM EDTA and 2.6 kiu/ml of aprotinin, pH 7.6) at a concentration of 10% (W/V) (only septum 5% (W/V)). Each homogenate was centrifuged at 100,000 xg for 10 minutes, and 50 μl of supernatant was added with the same amount of a dilution buffer (0.1 M Tris-HCl containing 2% bovine serum albumin fraction V, 0.05% NaN3 and 20 mM CaCl2, pH 7.6). Determination was conducted in accordance with a method of S. Furukawa et al. by using a high sensitivity ELISA system on 8-NGF which was described in J. Neurochem., 40, 734-744 (1983). Lower limit of determination is 0.25 pg/ml. Data are indicated as a mean value ±SE on the NGF content of tissue (pg/mg wet tissue) of five rats.

[1] = test system: production and secretion of NGF in brain astroglial cells; assay: Promoting activity for the production and secretion of NGF in brain astroglial cells of mouse (ELISA); conditions: 24 h
Method: The experiment was performed by inducing the astroglial cells from mouse forebrain to culture system according to the procedures of S. Furukawa et al. which is described in Biochem. Biophys. Res. Commun., 136, 57-63 (1986).
That is, forebrains of 8-day old mice were dissected out and cut into small pieces. […] Cells and cell clamps were recovered by centrifugation at 200 xg for 5 minutes. They were cultured in Dulbecco modified Eagle's medium (a product of Gibco Co. hereinafter abbreviated as DMEM) containing 10% of fetal calf serum, […] of penicillin, and 50 μg/ml of streptomycin, for 10 to 14 days with medium changes every 3 days. After completing confluency, the cells were dissociated by trypsin treatment and recultured in new culture flasks. This procedure was repeated further twice and more. […] The cells will hereinafter be referred to as astroglial cells.
Astroglial cells were innoculated in 24-well plates having a well surface area of 2.1 cm^2 (a product of Falcon Co.) at a cell density of about 3×10^4 cells/well and cultured for 3 days in DMEM . medium supplemented with 10% of fetal calf serum. After completing confluency about 10^7 cells/well), the medium was changed to DMEM medium (0.5 ml/well) supplemented with 0.5% of bovine serum albumin ((fraction V) and cultured for 3 days. The culture was further continued with medium changes every 3 days. After cells were practically synchronized in the quiscent stage, the medium was changed to 0.5 ml of the medium supplemented with 0.5% of bovine serum albumin and containing a prescribed concentration of test sample as illustrated in Tables. […] Data are expressed as fold increase in NGF content over that in the absence of the test sample. […] Data are presented as means ±SE of four determinations.

[2] = test system: production and secretion of NGF on L-M cells; assay: Promoting action for the production and secretion of NGF on L-M cells of mouse (ELISA); assay type: cell-based; conditions: Mus musculus, 24 h, read-out: Ratio of NGF increase
Description: Catecholamines have also been found in a relatively high concentration to accelerate these functions without being mediated by adrenergic receptors [Y. Furukawa et al., J. Biol. Chem., 261, 6039-6047 (1986)].
The compound having a high activity in Table 1, that is, the catechol derivative having a n-alkyl group in the 3 or 4 position on the ring has been observed an acute cell toxicity in higher concentrations. The toxicity was considered the result of two hydroxyl groups in the catechol structure. Then the hydroxyl groups were esterified or etherified and the resulting derivative was examined the effect on the activity for the production and secretion of NGF.
The experiment was performed according to the procedures of Y. Furukawa et al. which is described in J. Bis Chem., 261, 6039-6047 (1986).
The medium was cultured for 3 days at a temperature of 37° C. After completing the confluency (about 10^6 cells/well), the medium was changed to Medium 199 (0.5 ml/well) containing 0.5% bovine serum albumin (Fraction V, a product of Armour Co.). The sample of the derivative is contained in the medium at a prescribed concentration as illustrated in the Tables.

[3] = Table 6, i.p. 5 mg/kg, 4 times every other day
[4] = Table 6, i.p. 5 mg/kg, 4 times every other day, **P 0.01 vs saline

Question: With `CCCc1ccc(O)c(O)c1` [R = Two H, R1 = H, R2 = n-Propyl, 4-n-propylcatechol] as the compound, how does the LD50 (Acute toxicity (LD50); ip, intraperitoneal injection, read-out: LD50 i.p.) read?
Answer: Its LD50 is over 500 mg/kg.

Question: And the LD50 (Acute toxicity (LD50); intravenous injection, read-out: LD50 i.v.)?
Answer: Its LD50 is over 150 mg/kg.

Question: And the LD50 (Acute toxicity (LD50); oral route, read-out: LD50 p.o.)?
Answer: The LD50 was over 1500 mg/kg.

Question: What about the “NGF production in brain regions (in words)” value (NGF) of the same compound?
Answer: Its value is “marked activation of NGF production was observed in frontal cortex, hippocampus and olfactory bulb; also recorded: Significant increase in NGF level was also observed in the original region of cholinergic tracts”.

Question: And the “NGF content, cerebellum” value (NGF; [3])?
Answer: The value was 0.33 ± 0.16 pg/mg wet tissue.

Question: What about the “NGF content, striatum” value (NGF; [3]) of the same compound?
Answer: Its value is 0.24 ± 0.04 pg/mg wet tissue.

Question: What about the “NGF content, NBM (nucleus basalis magnecellularis)” value (NGF; [4]) of the same compound?
Answer: Its value is 1.69 ± 0.17 pg/mg wet tissue.

Question: And the “NGF content, olfactory bulb” value (NGF; [4])?
Answer: The value was 1.70 ± 0.24 pg/mg wet tissue.

Question: And the “NGF content, septum” value (NGF; [4])?
Answer: The value was 1.39 ± 0.14 pg/mg wet tissue.

Question: And the “NGF content, hippocampus” value (NGF; Table 6, i.p. 5 mg/kg, 4 times every other day, *P < 0.05 vs saline)?
Answer: Its value is 3.92 ± 0.63 pg/mg wet tissue.

Question: And the “NGF content, frontal cortex” value (NGF; Table 6, i.p. 5 mg/kg, 4 times every other day, two days after final administration, *P < 0.05 vs saline)?
Answer: The value was 2.14 ± 0.49 pg/mg wet tissue.

Question: And the “NGF content after 48 hr.” value (NGF; Table 7, i.p., three times every other day, 48 hours after final administration)?
Answer: The value was 1.97 ± 0.41 pg/mg wet tissue of frontal co.

Question: What about the “NGF content after 7 days” value (NGF; Table 7, i.p., three times every other day, 7 days after final administration) of the same compound?
Answer: The value was 2.28 ± 0.29 pg/mg wet tissue of frontal co.

Question: What about the fold induction at 100 µM ([1]; read-out: Ratio of NGF increase, Table 3, 0.10 mM, 24 hours, mean ± SE of four determinations) of the same compound?
Answer: Its fold induction at 100 µM is 68.4 ± 3.24.

Question: And the fold induction at 250 µM ([1]; read-out: Ratio of NGF increase, Table 3, 0.25 mM, 24 hours, mean ± SE of four determinations)?
Answer: The fold induction at 250 µM was 100 ± 11.2.

Question: And the fold induction at 30 µM [2]?
Answer: Its fold induction at 30 µM is 10.1 ± 1.14.

Question: And the fold induction at 100 µM [2]?
Answer: Its fold induction at 100 µM is 17.1 ± 2.7.
